Measurements from publication PMC4948780, “PARP Inhibitors in Clinical Use Induce Genomic Instability in Normal Human Cells” (PLoS ONE, 2016).

Assays:
[1] = patients on the olaparib-treated arm, prior cytotoxic chemotherapy; cited from earlier work
WT E14 mES cells = experiment: Clonogenic survival assay, mES cells; assay type: cell-based; details: Mus musculus, read-out: IC50 (clonogenic survival)
Text: (§1) Human mammary epithelial cell lines used included non-tumorigenic diploid MCF-10A, HMEC-hTERT and tumorigenic MDA-MB-468 (basal) and MCF-7 (luminal). […] Blood samples were obtained from normal donor participants. The participants provided written informed consent to IRB protocol #95–054 approved by the Institutional Review Board at MSKCC. The original signed consent is then sent to the research participant’s medical record and a copy of the consent is given to the participant. The EBV-transformed B-lymphocyte cell line (EBV-BL) was generated by transformation of peripheral blood mononuclear cells (PBMC) with the B95.8 strain of EBV, as previously described. Primary T cells were generated from PBMC from two normal donors by non-specific activation with phytohemagglutinin and cultured in RPMI1640 and human serum AB for 4–14 days before use. E14 mES cell line was provided by M. Hooper, Brca1^-/- 236.44 mES cell line was provided by B. H. Koller, Brca2^lex1/lex2 mES cell line was provided by P. Hasty and Lexicon Genetics. E14 wild-type, Brca1^-/- 236.44, and Brca2^lex1/lex2 mES cell lines were cultured in standard ES media. Brca1^-/- 236.44 cells express a BRCA1 peptide deleted for sequences encoded by exon 11 [52], while Brca2^lex1/lex2 cells express a BRCA2 peptide deleted for the terminal exon 27 [53]. […] Veliparib and BSI-201 were purchased from Chemie Tek. The compounds were dissolved in DMSO and PBS. For clonogenic survival assays, MCF-10A (1000 cells), HMEC-hTERT (1000 cells), MDA-MB-468 (1500 cells) and mouse ES cell (2000 cells) were seeded, vehicle control or inhibitors were added at the indicated concentration 24 hours after seeding and changed every three days for continuous treatment. At 7–14 days, colonies were fixed with methanol and stained with Giemsa. For EBV-BL (6 × 10^6) and primary T cells (3.6 × 10^6) were continuously exposed to the indicated concentration of drug for 10 days at 0.6 × 10^6 cells/ml. Viable cells were scored by trypan blue exclusion.

EBV-BL [2] = experiment: Survival, trypan blue exclusion test of cell viability; assay type: cell-based, human
Text: as §1

HMEC-hTERT = experiment: Chromosomal aberrations on metaphase spreads (Giemsa); assay type: cell-based, human; details: 1 μM, 24 hrs
Experimental: (§2) To prepare metaphase spreads, exponentially growing cells were treated with 0.1–0.3 μg/ml of colcemid for 1–6 hr. Cells were collected and incubated in hypotonic solution (0.56% KCl), fixed in methanol: acetic acid (3:1), spotted to slides and air-dried. To measure chromosomal aberrations, the slides were stained with 2% Giemsa/Sorensen’s buffer. To visualize SCEs, the doubling time for each cell type was determined. Cells were incubated with 10 μM BrdU for two cell cycles. After metaphase spreads were prepared, the slides were treated with 0.5 μg/ml Hoechst 33258. The slides were exposed to black light for 20–60 min, incubated at 60°C for 2 hr, and stained in 4–10% Giemsa/Sorensen’s buffer.

EBV-BL [3] = experiment: as above; assay type: cell-based, human; details: 1 μM, 24 hrs, 100 metaphases
Experimental: as §2

MCF-10A [4] = experiment: as above; assay type: cell-based, human; details: 1 μM, 24 hrs
Experimental: as §2

MCF-10A [5] = experiment: Clonogenic survival assay; assay type: cell-based, human
Experimental: Clonogenic survival was assessed by colony counting at 9 days. […] Viable cells were scored and enumerated by trypan blue exclusion at 7 days. Means with SD are shown (MCF-10A: n = 3, primary T cell 1: n = 2). […] Fold increases of SCE per chromosome compared with no treatment or 0.5 μM cisplatin are shown for each cell type. Approximately 50 metaphases were counted for each cell. Error bars depict the mean with SD. Asterisks designate statistical significance for unpaired t-test at P < 0.0001. C. […] One hundred metaphases were counted for each exposure. Fold increases of chromatid-type aberrations per chromosome compared with no treatment or 0.5 μM cisplatin are shown for each cell type. The y-axis is the number of total chromatid-type aberrations per chromosome for each metaphase counted. Error bars indicate mean with SEM. The P-values were calculated using unpaired t-test.
Human mammary epithelial cell lines used included non-tumorigenic diploid MCF-10A, HMEC-hTERT and tumorigenic MDA-MB-468 (basal) and MCF-7 (luminal). […] Blood samples were obtained from normal donor participants. The participants provided written informed consent to IRB protocol #95–054 approved by the Institutional Review Board at MSKCC. The original signed consent is then sent to the research participant’s medical record and a copy of the consent is given to the participant. The EBV-transformed B-lymphocyte cell line (EBV-BL) was generated by transformation of peripheral blood mononuclear cells (PBMC) with the B95.8 strain of EBV, as previously described. Primary T cells were generated from PBMC from two normal donors by non-specific activation with phytohemagglutinin and cultured in RPMI1640 and human serum AB for 4–14 days before use. E14 mES cell line was provided by M. Hooper, Brca1^-/- 236.44 mES cell line was provided by B. H. Koller, Brca2^lex1/lex2 mES cell line was provided by P. Hasty and Lexicon Genetics. E14 wild-type, Brca1^-/- 236.44, and Brca2^lex1/lex2 mES cell lines were cultured in standard ES media. Brca1^-/- 236.44 cells express a BRCA1 peptide deleted for sequences encoded by exon 11 [52], while Brca2^lex1/lex2 cells express a BRCA2 peptide deleted for the terminal exon 27 [53]. Olaparib was synthesized in the MSKCC Organic chemistry core facility. Veliparib and BSI-201 were purchased from Chemie Tek. The compounds were dissolved in DMSO and PBS. For clonogenic survival assays, MCF-10A (1000 cells), HMEC-hTERT (1000 cells), MDA-MB-468 (1500 cells) and mouse ES cell (2000 cells) were seeded, vehicle control or inhibitors were added at the indicated concentration 24 hours after seeding and changed every three days for continuous treatment. At 7–14 days, colonies were fixed with methanol and stained with Giemsa. For EBV-BL (6 × 10^6) and primary T cells (3.6 × 10^6) were continuously exposed to the indicated concentration of drug for 10 days at 0.6 × 10^6 cells/ml. Viable cells were scored by trypan blue exclusion.

[6] = 100 metaphases, radial and telomere association counted as two

O=C(c1cc(Cc2n[nH]c(=O)c3ccccc23)ccc1F)N1CCN(C(=O)C2CC2)CC1 [olaparib]
incidence of myelodysplastic syndrome and acute myelogenous leukemia [1]: 2.2%
IC50 (WT E14 mES cells): 600 nM
survival (mean ± SD) (EBV-BL [2]; EBV-BL, 1 μM): 92.6 ± 7.4%
IC50 (EBV-BL [2]; Homo sapiens, 240 h, read-out: IC50 (cell survival), EBV-BL, continuous exposure 10 days, trypan blue exclusion): 3.6 µM
total chromatid-type aberrations / metaphase (mean ± SEM) (HMEC-hTERT): 0.30 ± 0.07
chromatid-type radial chromosome (HMEC-hTERT; 100 metaphases): 0
chromatid-type telomere association (HMEC-hTERT; 100 metaphases): 0
chromosome-type dicentric (HMEC-hTERT; 100 metaphases): 0
chromosome-type gap/break (HMEC-hTERT; 100 metaphases): 4
total chromatid-type aberrations (HMEC-hTERT; [6]): 30
chromatid-type radial chromosome (EBV-BL [3]): 1
chromatid-type telomere association (EBV-BL [3]): 0
chromosome-type dicentric (EBV-BL [3]): 0
chromosome-type gap/break (EBV-BL [3]): 1
total chromatid-type aberrations (EBV-BL [3]; radial and telomere association counted as two): 44
total chromatid-type aberrations / metaphase (mean ± SEM) (MCF-10A [4]): 0.22 ± 0.05
chromatid-type radial chromosome (MCF-10A [4]; 100 metaphases): 0
chromatid-type telomere association (MCF-10A [4]; 100 metaphases): 1
chromosome-type dicentric (MCF-10A [4]; 100 metaphases): 0
chromosome-type gap/break (MCF-10A [4]; 100 metaphases): 3
total chromatid-type aberrations (MCF-10A [4]; [6]): 22
survival (mean ± SD) (MCF-10A [5]; 1 μM): 95.7 ± 1.9%
IC50 (MCF-10A [5]; Homo sapiens, continuous exposure, clonogenic survival assay, read-out: IC50 (cell survival)): 4.7 µM
